According to patent US10385070B2, “Chroman-spirocyclic piperidine amides as modulators of ion channels” (VERTEX PHARMACEUTICALS INCORPORATED, priority 2011, dated 2019):

Molecular target: human NaV subtype, like NaV 1.7 (Homo sapiens, UniProt Q15858)
Test: E-VIPR optical membrane potential assay with electrical stimulation
Assay type: cell-based
Conditions: active against one or more sodium channels; assay and NaV subtype not specified for Table 3; read-out: IC50 Binned Activity Data
Procedure, shortened: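 HEK cells expressing human NaV (e.g. NaV1.7), loaded with CC2-DMPE/DiSBAC6(3) FRET dyes, compounds 20–35 min at room temperature, 0.625% DMSO, KCl 4.5–20 mM. Electrical stimulation ~9 s at 400 Hz scan; background-subtracted 460/580 nm emission ratios normalized; tetracaine 125 µM as positive control.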

Chain of human NaV subtype, like NaV 1.7 (Q15858 whole entry): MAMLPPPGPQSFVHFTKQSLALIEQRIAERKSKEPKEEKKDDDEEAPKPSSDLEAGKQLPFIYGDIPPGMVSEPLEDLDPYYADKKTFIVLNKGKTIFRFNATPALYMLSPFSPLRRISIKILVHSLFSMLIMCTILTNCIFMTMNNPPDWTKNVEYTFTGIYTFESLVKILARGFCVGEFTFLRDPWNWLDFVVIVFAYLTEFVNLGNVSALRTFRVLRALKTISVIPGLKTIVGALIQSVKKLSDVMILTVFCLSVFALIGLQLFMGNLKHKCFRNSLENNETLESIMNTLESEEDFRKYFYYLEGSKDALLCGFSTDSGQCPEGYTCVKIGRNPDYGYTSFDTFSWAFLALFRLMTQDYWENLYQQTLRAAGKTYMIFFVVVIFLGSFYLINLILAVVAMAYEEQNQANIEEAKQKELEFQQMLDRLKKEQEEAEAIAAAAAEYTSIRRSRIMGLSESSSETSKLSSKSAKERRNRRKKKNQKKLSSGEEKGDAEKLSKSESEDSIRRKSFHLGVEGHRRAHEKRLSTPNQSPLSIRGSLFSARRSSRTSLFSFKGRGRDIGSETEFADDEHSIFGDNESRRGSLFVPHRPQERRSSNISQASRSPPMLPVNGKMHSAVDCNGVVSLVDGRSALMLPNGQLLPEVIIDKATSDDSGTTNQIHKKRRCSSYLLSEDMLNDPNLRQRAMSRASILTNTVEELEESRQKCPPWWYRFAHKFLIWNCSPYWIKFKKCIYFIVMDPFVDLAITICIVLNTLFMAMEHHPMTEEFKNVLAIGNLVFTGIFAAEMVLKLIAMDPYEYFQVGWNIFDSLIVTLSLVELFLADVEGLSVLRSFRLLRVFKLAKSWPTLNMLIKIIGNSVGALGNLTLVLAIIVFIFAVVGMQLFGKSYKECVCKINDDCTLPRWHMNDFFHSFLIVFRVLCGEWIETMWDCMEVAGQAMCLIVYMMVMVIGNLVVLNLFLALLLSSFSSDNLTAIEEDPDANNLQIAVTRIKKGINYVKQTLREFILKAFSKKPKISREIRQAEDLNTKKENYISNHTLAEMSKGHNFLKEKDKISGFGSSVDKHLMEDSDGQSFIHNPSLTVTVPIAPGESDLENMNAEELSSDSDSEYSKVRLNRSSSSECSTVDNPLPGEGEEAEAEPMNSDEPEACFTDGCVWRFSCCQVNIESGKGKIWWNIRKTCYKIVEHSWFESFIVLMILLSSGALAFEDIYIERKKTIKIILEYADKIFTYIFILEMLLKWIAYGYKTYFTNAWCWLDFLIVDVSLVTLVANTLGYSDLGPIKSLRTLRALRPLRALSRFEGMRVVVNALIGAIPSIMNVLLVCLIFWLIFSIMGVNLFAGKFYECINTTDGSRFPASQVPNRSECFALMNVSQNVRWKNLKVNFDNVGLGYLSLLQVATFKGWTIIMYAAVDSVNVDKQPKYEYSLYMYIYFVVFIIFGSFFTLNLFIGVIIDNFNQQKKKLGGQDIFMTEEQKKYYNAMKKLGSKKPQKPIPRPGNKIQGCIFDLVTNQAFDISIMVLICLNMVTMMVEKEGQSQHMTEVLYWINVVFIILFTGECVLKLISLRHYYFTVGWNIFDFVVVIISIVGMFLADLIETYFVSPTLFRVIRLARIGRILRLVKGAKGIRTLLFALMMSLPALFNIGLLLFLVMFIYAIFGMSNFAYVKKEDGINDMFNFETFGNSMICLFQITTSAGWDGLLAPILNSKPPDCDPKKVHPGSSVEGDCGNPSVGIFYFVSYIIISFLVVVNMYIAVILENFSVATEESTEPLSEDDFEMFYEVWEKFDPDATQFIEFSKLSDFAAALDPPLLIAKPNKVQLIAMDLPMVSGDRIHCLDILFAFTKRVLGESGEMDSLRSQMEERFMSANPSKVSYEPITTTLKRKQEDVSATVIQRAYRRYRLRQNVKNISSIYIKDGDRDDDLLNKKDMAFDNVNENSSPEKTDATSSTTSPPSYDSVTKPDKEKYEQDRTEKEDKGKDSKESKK

| IC50 [µM] | Compound |
| --- | --- |
| > 5 | CCc1ccc(C(=O)N2CCC3(CC2)C[C@@H](OC(C)C)c2cc(F)ccc2O3)nc1 [Compound 111] |
| ≤ 2 | Cc1nc(C(=O)N2CCC3(CC2)C[C@H](OC(C)C)c2ccccc2O3)ccc1OC(C)C [Compound 107] |
| ≤ 2 | CC(C)OC1CC2(CCN(C(=O)c3ccc(S(=O)(=O)C(C)C)cc3)CC2)Oc2c(F)cccc21 (stereo not drawn) [Compound 78] |
| 2 to 5 | Cc1cc(C(=O)N2CCC3(CC2)CC(OC(C)C)c2cnccc2O3)ccc1OC(C)C (stereo not drawn) [Compound 89] |
| 2 to 5 | CC(C)O[C@H]1CC2(CCN(C(=O)c3ccc4c(cnn4C)c3)CC2)Oc2ccccc21 [Compound 123] |
| ≤ 2 | Cc1cc(C(=O)N2CCC3(CC2)C[C@@H](O)c2cc(F)ccc2O3)ccc1C(C)(C)O [Compound 134] |
| 2 to 5 | COc1cc(C(=O)N2CCC3(CC2)C[C@@H](OC(C)C)c2ccccc2O3)ccc1OC(F)F [Compound 70] |
| ≤ 2 | Cc1cc(C(=O)N2CCC3(CC2)C[C@@H](OC(C)C)c2cc(F)cc(F)c2O3)ccc1S(=O)(=O)C(C)C [Compound 27] |
| ≤ 2 | COc1cc(C(=O)N2CCC3(CC2)CC(OC(C)C)c2cccnc2O3)ccc1OC(C)C (stereo not drawn) [Compound 84] |
| ≤ 2 | Cc1cc(C(=O)N2CCC3(CC2)C[C@@H](OC(C)C)c2cc(F)ccc2O3)ccc1OC1COC1 [Compound 92] |
| ≤ 2 | COc1cc(C(=O)N2CCC3(CC2)C[C@@H](OC(C)C)c2cc(F)ccc2O3)ccc1C(C)(C)CO [Compound 120] |
| ≤ 2 | COc1cc(C(=O)N2CCC3(CC2)CC(Cn2cccn2)c2ccccc2O3)ccc1OC(C)C (stereo not drawn) [Compound 143] |
| ≤ 2 | COc1cc(C(=O)N2CCC3(CC2)C[C@H](OC(C)C)c2ccccc2O3)ccc1OC(C)C [Compound 171] |
| ≤ 2 | COc1cc(C(=O)N2CCC3(CC2)C[C@@H](OC(C)C)c2ccccc2O3)ccc1C(C)(C)O [Compound 57] |
| ≤ 2 | Cc1cc(C(=O)N2CCC3(CC2)CC(OC(C)C)c2cccnc2O3)ccc1OC(C)C (stereo not drawn) [Compound 45] |
| > 5 | CCO[C@@H]1CC2(CCN(C(=O)c3ccc(S(=O)(=O)C(F)F)cc3)CC2)Oc2ccc(F)cc21 [Compound 121] |
| ≤ 2 | CC(C)O[C@@H]1CC2(CCN(C(=O)c3ccc(S(=O)(=O)C(C)C)c(C#N)c3)CC2)Oc2ccc(F)cc21 [Compound 22] |
| ≤ 2 | CC(C)O[C@@H]1CC2(CCN(C(=O)c3ccc(N4CC(C)OC(C)C4)cn3)CC2)Oc2ccc(F)cc21 (stereo partly drawn) [Compound 176] |
